Results published in patent US20130040978A1 (priority 2010, published 2013).
Structures can show the parent of a compound that is named as a salt.

Key:
[1] = biological target: T1, SSTR5 (Homo sapiens, UniProt P35346); test: Functional assay of inhibition of SSTR5 mediated cyclic AMP production in SSTR5 expressing CHO cells; type: cell-based, human; conditions: forskolin (FSK) plus SS-28, read-out: cAMP IC50
[2] = biological target: T1, SSTR5; test: SSTR5 receptor-ligand binding assay, CHO-K1 cell membranes, 125I-SRIF radioligand; set-up: expressed in transfected cells; conditions: Table 4, read-out: Bnd IC50
Experimental: The receptor-ligand binding assays of all 5 subtype of SSTRs were performed with membranes isolated from Chinese hamster ovary (CHO)-K1 cells stably expressing the cloned human somatostatin receptors in 96-well format as previous reported. (Yang et al. PNAS 95:10836-10841, (1998), Birzin et al. Anal. Biochem. 307:159-166, (2002)).
The stable cell lines for SSTR1-SSTR5 were developed by stably transfecting with DNA for all five SSTRs using Lipofectamine. Neomycin-resistant clones were selected and maintained in medium containing 400 μg/mL G418 (Rohrer et al. Science 282:737-740, (1998)). Binding assays were performed using (3-125I-Tyr11)-SRIF-14 or (3-125I-Tyrl 1)-SRIF-28 as the radioligand (used at 0.1 nM) and The Packard Unifilter assay plate. The assay buffer consisted of 50 mM TrisHCl (pH 7.8) with 1 mM EGTA, 5 mM MgCl2, leupeptin (10 μg/mL), pepstatin (10 μg/mL), bacitracin (200 μg/mL), and aprotinin (0.5 μg/mL). CHO-K1 cell membranes, radiolabeled somatostatin, and unlabeled test compounds were resuspended or diluted in this assay buffer. Unlabeled test compounds were examined over a range of concentrations from 0.01 nM to 10,000 nM. The Ki values for compounds were determined as described by Cheng and Prusoff Biochem Pharmacol. 22:3099-3108 (1973).

T1 sequence (P35346 whole entry): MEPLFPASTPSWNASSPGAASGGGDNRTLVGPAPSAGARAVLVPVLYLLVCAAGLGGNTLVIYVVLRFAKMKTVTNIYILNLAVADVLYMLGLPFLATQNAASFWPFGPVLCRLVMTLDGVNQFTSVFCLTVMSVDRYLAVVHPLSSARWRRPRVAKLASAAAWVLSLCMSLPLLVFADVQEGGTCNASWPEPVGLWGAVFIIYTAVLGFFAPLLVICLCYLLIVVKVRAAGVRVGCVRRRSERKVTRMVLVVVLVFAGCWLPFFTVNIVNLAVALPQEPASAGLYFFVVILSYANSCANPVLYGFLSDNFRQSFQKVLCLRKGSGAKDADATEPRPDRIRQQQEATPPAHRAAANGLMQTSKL

Compound | IC50 [1] | IC50 [2]
Cc1cc(CN2CCC3(CC2)CC(c2ccc(C(=O)O)cc2)=NO3)cc2c1OC(C)(C)CC2 [Example 91, 4-{8-[(2,2,8-Trimethyl-3,4-dihydro-2H-chromen-6-yl)methyl]-1-oxa-2,8-diazaspiro[4.5]dec-2-en-3-yl}benzoic acid, TFA salt] | 72.7 nM | 
CC(C)n1cc(CN2CCC3(CC2)CC(c2ccc(C(=O)O)cc2)=NO3)c2c(-c3ccc(F)cc3)cccc21 [Example 39, 4-(8-{[4-(4-Fluorophenyl)-1-(propan-2-yl)-1H-indol-3-yl]methyl}-1-oxa-2,8-diazaspiro[4.5]dec-2-en-3-yl)benzoic acid, TFA salt] | 0.18 nM | 
Cc1cccc2c(CN3CCC4(CC3)CC(c3ccc(C(=O)O)cc3)=NO4)cn(C(C)C)c12 [Example 44, 4-(8-{[7-Methyl-1-(propan-2-yl)-1H-indol-3-yl]methyl}-1-oxa-2,8-diazaspiro[4.5]dec-2-en-3-yl)benzoic acid, TFA salt] | 14.4 nM | 
CC(C)(C)n1cc(CN2CCC3(CC2)CC(c2ccc(C(=O)O)cc2)=NO3)c(-c2ccc(F)c(F)c2F)n1 [Example 3, 4-(8-{[1-tert-Butyl-3-(2,3,4-trifluorophenyl)-1H-pyrazol-4-yl]methyl})-1-oxa-2,8-diazaspiro[4.5]dec-2-en-3-yl)benzoic acid, TFA salt] | 8.2 nM | 2.8 nM
O=C(O)c1ccc(C2=NOC3(CCN(Cc4ccc(Cl)c(Br)c4)CC3)C2)cc1 [Example 70, 4-[8-(3-Bromo-4-chlorobenzyl)-1-oxa-2,8-diazaspiro[4.5]dec-2-en-3-yl]benzoic acid] | 26.5 nM | 
CC(C)n1cc(CN2CCC3(CC2)CC(c2ccc(C(=O)O)cc2)=NO3)c2c(-c3ccc(F)cc3)ccnc21 [Example 43, 4-(8-{[4-(4-Fluorophenyl)-1-(propan-2-yl)-1H-pyrrolo[2,3-b]pyridin-3-yl]methyl}-1-oxa-2,8-diazaspiro[4.5]dec-2-en-3-yl)benzoic acid, TFA salt] | 2.5 nM | 
CCOc1cc(CN2CCC3(CC2)CC(c2ccc(C(=O)O)cn2)=NO3)cc(OCC)c1-c1ccc(F)cc1 [Example 25, 6-{8-[(2,6-Diethoxy-4′-fluorobiphenyl-4-yl)methyl]-1-oxa-2,8-diazaspiro[4.5]dec-2-en-3-yl}pyridine-3-carboxylic acid] | 2.6 nM | 1.2 nM
CCOc1cc(CN2CCC3(CC2)CC(c2ccc(C(=O)O)cc2)=NO3)c(-c2ccc(F)nc2)cc1C [Example 26, 4-{8-[5-Ethoxy-2-(6-fluoropyridin-3-yl)-4-methylbenzyl]-1-oxa-2,8-diazaspiro[4.5]dec-2-en-3-yl}benzoic acid] | 0.32 nM | 0.33 nM
CC1(C)CC2(CC2)c2cc(CN3CCC4(CC3)CC(c3ccc(C(=O)O)cc3)=NO4)ccc2O1 [Example 95, 4-{8-[(2,2-Dimethyl-2,3-dihydrospiro[chromene-4,1′-cyclopropan]-6-yl)methyl]-1-oxa-2,8-diazaspiro[4.5]dec-2-en-3-yl}benzoic acid, TFA salt] | 18.7 nM | 
CCOc1cc(CN2CCC3(CC2)CC(c2ccc(C(=O)O)cc2)=NO3)c(-c2nccs2)cc1C [Example 19, 4-{8-[5-Ethoxy-4-methyl-2-(1,3-thiazol-2-yl)benzyl]-1-oxa-2,8-diazaspiro[4.5]dec-2-en-3-yl}benzoic acid] | 0.94 nM | 1.5 nM
4-{8-[(4,4-Dimethyl-3,4-dihydro-2-H-chromen-6-yl)methyl]-1-oxa-2,8-diazaspiro[4.5]dec-2-en-3-yl}benzoic acid, TFA salt [Example 2] | 5.2 nM | 4.3 nM
CCOc1cc(CN2CCC3(CC2)CC(c2ccc(C(=O)O)cc2)=NO3)ccc1Cl [Example 12, 4-[8-(4-Chloro-3-ethoxybenzyl)-1-oxa-2,8-diazaspiro[4.5]dec-2-en-3-yl]benzoic acid] | 1.3 nM | 7.5 nM
CC(C)n1cc(CN2CCC3(CC2)CC(c2ccc(C(=O)O)cc2)=NO3)c2c(-c3cc(F)c(F)cc3F)cccc21 [Example 41, 4-(8-{[4-(2,4,5-Trifluorophenyl)-1-(propan-2-yl)-1H-indol-3-yl]methyl}-1-oxa-2,8-diazaspiro[4.5]dec-2-en-3-yl)benzoic acid, TFA salt] | 0.3 nM | 
CC(C)n1cc(CN2CCC3(CC2)CC(c2ccc(C(=O)O)cc2)=NO3)c2c(C3CC3)cccc21 [Example 47, 4-(8-{[4-(Cyclopropyl)-1-(propan-2-yl)-1H-indol-3-yl]methyl}-1-oxa-2,8-diazaspiro[4.5]dec-2-en-3-yl)benzoic acid, TFA salt] | 0.28 nM | 
O=C(O)c1ccc(C2=NOC3(CCN(Cc4cn(C5CC5)c5ccc(C6CC6)cc45)CC3)C2)cc1 [Example 49, 4-(8-{[1,5-(Dicyclopropyl)-1H-indol-3-yl]methyl}-1-oxa-2,8-diazaspiro[4.5]dec-2-en-3-yl)benzoic acid, TFA salt] | 2.5 nM | 
Cc1cc(-c2cccnc2)c(CN2CCC3(CC2)CC(c2ccc(C(=O)O)cc2)=NO3)cc1C(F)(F)F [Example 68] | 13.2 nM | 
CC(C)n1cc(CN2CCC3(CC2)CC(c2ccc(C(=O)O)cc2)=NO3)c2cccc(C3CC3)c21 [Example 48, 4-(8-{[7-(Cyclopropyl)-1-(propan-2-yl)-1H-indol-3-yl]methyl}-1-oxa-2,8-diazaspiro[4.5]dec-2-en-3-yl)benzoic acid, TFA salt] | 3.36 nM | 
O=C(O)c1ccc(C2=NOC3(CCN(Cc4cn(C5CC5)c5c(C6CC6)cccc45)CC3)C2)cc1 [Example 50, 4-(8-{[1,7-(Dicyclopropyl)-1H-indol-3-yl]methyl}-1-oxa-2,8-diazaspiro[4.5]dec-2-en-3-yl)benzoic acid, TFA salt] | 13.5 nM | 
CC1(C)CC2(CC2)c2cc(CN3CCC4(CC3)CC(c3ccc(C(=O)O)cc3)=NO4)cc(C3CC3)c2O1 [Example 97, 4-{8-[(8-Cyclopropyl-2,2-dimethyl-2,3-dihydrospiro[chromene-4,1′-cyclopropan]-6-yl)methyl]-1-oxa-2,8-diazaspiro[4.5]dec-2-en-3-yl}benzoic acid, TFA salt] | 4.05 nM | 

Further compounds by falling IC50 [1], results first:

IC50 [1] | IC50 [2] | Compound
472 nM |  | CC1(C)CCS(=O)(=O)c2c(Cl)cc(CN3CCC4(CC3)CC(c3ccc(C(=O)O)cc3)=NO4)cc21 [Example 99, 4-{8-[(8-Chloro-4,4-dimethyl-1,1-dioxido-3,4-dihydro-2H-thiochromen-6-yl)methyl]-1-oxa-2,8-diazaspiro[4.5]dec-2-en-3-yl}benzoic acid, TFA salt]
12.6 nM |  | CC1(C)CCSc2c(C3CC3)cc(CN3CCC4(CC3)CC(c3ccc(C(=O)O)cc3)=NO4)cc21 [Example 98, 4-{8-[(8-Cyclopropyl-4,4-dimethyl-3,4-dihydro-2H-thiochromen-6-yl)methyl]-1-oxa-2,8-diazaspiro[4.5]dec-2-en-3-yl}benzoic acid, TFA salt]
12.1 nM |  | CC(C)n1cc(CN2CCC3(CC2)CC(c2ccc(C(=O)O)cc2)=NO3)c2c(F)c(F)c(F)c(F)c21 [Example 46, 4-(8-{[1-(propan-2-yl)-4,5,6,7-(tetrafluoro)-1H-indol-3-yl]methyl}-1-oxa-2,8-diazaspiro[4.5]dec-2-en-3-yl)benzoic acid, TFA salt]
9.4 nM |  | CC1(C)CC2(CC2)c2cc(CN3CCC4(CC3)CC(c3ccc(C(=O)O)cc3)=NO4)cc(Cl)c2O1 [Example 96, 4-{8-[(8-Chloro-2,2-dimethyl-2,3-dihydrospiro[chromene-4,1′-cyclopropan]-6-yl)methyl]-1-oxa-2,8-diazaspiro[4.5]dec-2-en-3-yl}benzoic acid, TFA salt]
9.15 nM |  | Cc1cccc2c(CN3CCC4(CC3)CC(c3ccc(C(=O)O)cc3)=NO4)cn(C3CC3)c12 [Example 45, 4-(8-{[7-Methyl-1-(cyclopropyl)-1H-indol-3-yl]methyl}-1-oxa-2,8-diazaspiro[4.5]dec-2-en-3-yl)benzoic acid, TFA salt]
8.32 nM |  | CC(C)n1cc(CN2CCC3(CC2)CC(c2ccc(C(=O)O)cc2)=NO3)c2cc(F)ccc21 [Example 51, 4-(8-{[5-Fluoro-1-(propan-2-yl)-1H-indol-3-yl]methyl}-1-oxa-2,8-diazaspiro[4.5]dec-2-en-3-yl)benzoic acid, TFA salt]
2.25 nM |  | O=C(O)c1ccc(C2=NOC3(CCN(Cc4cc(Cl)cc(C5CC5)c4)CC3)C2)cc1 [Example 85, 4-[8-(3-Chloro-5-cyclopropylbenzyl)-1-oxa-2,8-diazaspiro[4.5]dec-2-en-3-yl]benzoic acid, TFA salt]
1.5 nM |  | CC1(C)CCOc2c(Cl)cc(CN3CCC4(CC3)CC(c3ccc(C(=O)O)cc3)=NO4)cc21 [Example 87, 4-{8-[(8-Chloro-4,4-dimethyl-3,4-dihydro-2H-chromen-6-yl)methyl]-1-oxa-2,8-diazaspiro[4.5]dec-2-en-3-yl}benzoic acid trifluoroacetate]
0.4 nM |  | CC(C)n1cc(CN2CCC3(CC2)CC(c2ccc(C(=O)O)cc2)=NO3)c2c(-c3ccc(F)nc3)cccc21 [Example 40, 4-(8-{[4-(6-Fluoropyridin-3-yl)-1-(propan-2-yl)-1H-indol-3-yl]methyl}-1-oxa-2,8-diazaspiro[4.5]dec-2-en-3-yl)benzoic acid, TFA salt]
